{"source": "patent US20220315934A1", "about": "“HETEROLOGOUS RIBOSOME GENERATION, […] COMPOSITIONS THEREOF” (priority 2019, published 2022)", "format_in_all_cases": "cell-based", "key": {"E. coli strain S4246": {"test_system": "E. coli strain S4246", "experiment": "Antibiotic sensitivity/resistance of erythromycin-resistant strain S4246", "protocol": "The erythromycin-resistant strain S4246 was generated using conventional recombineering (76, 77). Briefly, chemically competent S2060 cells were transformed with pKD46 (77) and plated on 2×YT agar plates supplemented with 50 μg mL^−1 carbencillin at 30° C. A single colony was picked, grown at 30° C. in 2×YT liquid medium supplemented with 50 μg mL^−1 carbencillin and 10 mM arabinose, and made chemically competent when the culture reached the appropriate OD600. Chemically competent S2060/pKD46 cells were transformed with the phosphothiorated recombineering oligonucleotide AB5708 (5′-C*T*C*A*[…] CCGCG […]-3′, SEQ ID NO: 403; phosphothirate bonds indicated as *, introduced mutation is bolded) to introduce the rrlA-H A2058U mutation on replichore 2 (76). Following recovery for 3 hours at 30° C., transformed cells were plated on 2×YT agar plates supplemented with 1000 μg mL^−1 erythromycin and incubated at 37° C. to cure the resident pKD46 plasmid. Following overnight growth, single colonies were picked into 2×YT liquid medium supplemented with 50 μg mL^−1 streptomycin, 10 μg mL^−1 tetracycline and 1000 μg mL^−1 erythromycin and allowed to grow overnight at 37° C. To assess the degree of rrlA-H mutagenesis, cultures were used as PCR templates using primers AB5710 (5′-[…]-3′, SEQ ID NO: 404) and AB5711 (5′-[…]-3′, SEQ ID NO: 405), and the PCR products were treated with the endonuclease HpyCH4III (New England Biolabs) according to the manufacturer's guidelines. Wildtype rrlA-H genotypes show no digestion under these conditions, whereas complete conversion results in complete PCR product digestion. Intermediate (incomplete) digestion indicated in incomplete conversion of all seven genomic alleles. The completely converted strain S4246 was confirmed to be sensitive to the following antibiotics (ensures no resistance crosstalk with plasmid-borne markers): carbenicillin (50 μg mL^−1), spectinomycin (100 μg mL^−1), chloramphenicol (40 μg mL^−1), and kanamycin (30 μg mL^−1). The strain was confirmed to be resistant to the following antibiotics: streptomycin (50 μg mL^−1), tetracycline (10 μg mL^−1), and erythromcyin (1000 μg mL^−1)."}, "[1]": {"test_system": "episome-derived E. coli orthogonal ribosome LSUs", "experiment": "Erythromycin-dependent (ermCL) orthogonal sfGFP reporter in S4246, E. coli orthogonal ribosomes", "source_text": "(§1) To assess the degree of association between E. coli LSUs and heterologous SSUs, an erythromycin-dependent reporter was developed to distinguish between genome- (E. coli; erythromycin-resistant) and episome-derived (heterologous; erythromycin-sensitive) LSUs. The erythromycin-resistant strain S4246 was developed, wherein all seven genomic 23S genes (rrlA-H) of 52060 cells were mutated (A2058U) (75) to mitigate macrolide binding in the ribosomal exit tunnel (FIG. 18A) (76, 77). rrlA-H A2058U sequences are presented in Table 1.\n(§2) Next, the ErmC leader peptide, ermCL, was introduced ahead of the orthogonal sfGFP reporter, ensuring that reporter translation would be abrogated via erythromycin- and ermCL-dependent translational stalling (78) (FIG. 18B).\nTo validate this sensor, the erythromycin sensitivity of an episome-derived E. coli orthogonal ribosome encoding or lacking the identical A2058U mutation was assessed. A recently described stapled E. coli ribosome (d2d8) (7) that preferentially uses a covalently linked 23S rRNA, with or without the identical mutation was used as a control."}, "heterologous ribosomes": {"test_system": "heterologous ribosomes", "experiment": "Erythromycin-dependent orthogonal sfGFP reporter in S4246, heterologous ribosomes", "source_text": "as §1, §2\nThis analysis was next extended to a set of 20 functional heterologous ribosomes."}, "[2]": {"conditions": "heterologous ribosomes bearing intermediate homology (92.9-97.0%)"}}}
{"smiles": "CC1(C)S[C@@H]2[C@H](NC(=O)C(C(=O)O)c3ccccc3)C(=O)N2[C@H]1C(=O)O", "note": "(stereo partly drawn) [carbenicillin]", "values": [{"measurement": "sensitivity of strain S4246", "setting": "E. coli strain S4246; carbenicillin 50 μg mL^−1", "value": "sensitive"}]}
{"smiles": "CC[C@H]1OC(=O)[C@H](C)[C@@H](O[C@H]2C[C@@](C)(OC)[C@@H](O)[C@H](C)O2)[C@H](C)[C@@H](O[C@@H]2O[C@H](C)C[C@H](N(C)C)[C@H]2O)[C@](C)(O)C[C@@H](C)C(=O)[C@H](C)[C@@H](O)[C@]1(C)O", "note": "[erythromycin]", "values": [{"measurement": "MIC", "setting": "E. coli strain S4246; Escherichia coli, S4246", "value": "> 1000", "unit": "µg/mL"}, {"measurement": "resistance of strain S4246", "setting": "E. coli strain S4246; erythromycin 1000 μg mL^−1", "value": "resistant"}, {"measurement": "change in orthogonal translation upon erythromycin dosing", "setting": "[1]; A2058U-LSUs, free and stapled (d2d8)", "value": "no appreciable change"}, {"measurement": "change in orthogonal translation upon erythromycin dosing", "setting": "[1]; unmutated LSUs, dose-dependent", "value": "marked reduction"}, {"measurement": "sfGFP signal upon erythromycin treatment", "setting": "heterologous ribosomes; [2]", "value": "extensive reduction"}, {"measurement": "viability upon erythromycin treatment", "setting": "heterologous ribosomes; [2]", "value": "no associated viability defect"}, {"measurement": "sfGFP translation and cell viability upon erythromycin treatment", "setting": "heterologous ribosomes; heterologous ribosomes with high 16S sequence identity to E. coli (≥99.2%)", "value": "dramatic reduction"}, {"measurement": "sfGFP signal upon erythromycin treatment", "setting": "heterologous ribosomes; more divergent heterologous ribosomes (79.3-90.3%)", "value": "decreased minimally"}]}
{"smiles": "CN[C@@H]1[C@H](O)[C@H](NC)[C@H]2O[C@@]3(O)C(=O)C[C@@H](C)O[C@H]3O[C@@H]2[C@H]1O", "note": "[spectinomycin]", "values": [{"measurement": "sensitivity of strain S4246", "setting": "E. coli strain S4246; spectinomycin 100 μg mL^−1", "value": "sensitive"}]}
{"smiles": "O=C(N[C@H](CO)[C@H](O)c1ccc([N+](=O)[O-])cc1)C(Cl)Cl", "note": "[chloramphenicol]", "values": [{"measurement": "sensitivity of strain S4246", "setting": "E. coli strain S4246; chloramphenicol 40 μg mL^−1", "value": "sensitive"}]}
{"smiles": "[H]/N=C(/N)N[C@H]1[C@H](O)[C@@H](O)[C@H](O[C@@H]2O[C@@H](C)[C@](O)(C=O)[C@H]2O[C@@H]2O[C@@H](CO)[C@H](O)[C@@H](O)[C@@H]2NC)[C@@H](N/C(N)=N\\[H])[C@@H]1O", "note": "[streptomycin]", "values": [{"measurement": "resistance of strain S4246", "setting": "E. coli strain S4246; streptomycin 50 μg mL^−1", "value": "resistant"}]}
